Data taken from patent US20220235008A1, “PLEUROMULIN 7-CHLORO-1-CYCLOPROPYL-6-FLUORO-1,4-DIHYDRO-4-OXOQUINOLINE-3-CARBOXYLIC ACID ESTER WITH ANTIBACTERIAL ACTIVITY AND A METHOD OF PREPARING THE SAME” (SHAANXI UNIVERSITY OF SCIENCE AND TECHNOLOGY, priority 2021, published 2022).

Experiments:
Type in all cases: cell-based
[1] = system: multi-resistant Staphylococcus aureus 575 (MRSA-575); test: paper diffusion method drug sensitivity test, MRSA-575; conditions: 30 μg/tablet; for Zone of inhibition, MRSA-575: paper 6.35 mm diameter, LB plate, 37° C., 24 h, >17 mm sensitive, 15 mm-16 mm intermediary, <14 mm drug resistance; for inhibitory effect (in words) on multi-drug resistant Staphylococcus aureus 575: paper diffusion, summary of FIGS. 1-3 and Table 1
Protocol: (§1) The antimicrobial efficacy was determined by a paper diffusion method drug sensitivity test.
(§2) Experimental strains: multi-resistant Staphylococcus aureus 206 (MRSA-206), multi-resistant Staphylococcus aureus 575 (MRSA-575), multi-resistant Staphylococcus aureus 596 (MRSA-596). The experimental strain was identified by Huashan Hospital Affiliated to Fudan University (Institute of Antibiotic of Fudan University).
(§3) Drug sensitive paper: The drug sensitive paper was a special drug sensitive paper with a diameter of 6.35 mm and a water absorption of 0.02 mL. The control drug was vancomycin (30 μg/tablet); the test drugs were pleuromulin (30 μg/tablet), 7-chloro-1-cyclopropyl-6-fluoro-1,4-dihydro-4-oxoquinoline-3-carboxylic acid (30 μg/tablet) and pleuromulin 7-chloro-1-cyclopropyl-6-fluoro-1,4-dihydro-4-oxoquinoline-3-carboxylic acid ester (30 μg/tablet).
(§4) Reagents: LB agar medium, LA broth medium, 0.5% DMSO solution.
(§5) The experimental strains were inoculated in non-selective medium and placed in air at 37° C. for 24 h. A single colony that grows well and inoculate it into broth medium was incubate at 35° C.±2° C. for 6 hours, and LA broth medium was used to calibrate the concentration of the bacterial solution to 0.5 Mie turbidimetric tube (1.5×10^8 CFU/mL). A bacterial suspension was obtained.
(§6) LB dry powder was weighed, sterilized at 103.4 Kpa, 121.3° C. high-pressure steam for 15 min, and then placed it in a 40° C.-50° C. water bath. A sterile empty plate (inner diameter 9 cm) was placed on the surface of the ultra-clean table water table, and […] to the plate. The thickness of each plate was 3 mm to 4 mm. After the plate was cooled at room temperature, it was stored in the refrigerator at 2° C.-8° C. A sterile cotton swab was used to dip the bacterial solution and to evenly coat the surface of the LB plate 3 times. After inoculation of the bacterial suspension, the LB plate was dried at room temperature for 3 min to 5 min. Sterile forceps were used to closely attach the antibacterial drug paper to the dish. The dish was put upside down and placed in a 37° C. incubator for 24 h. The results were observed by measuring the diameter. Taking 0.5% DMSO solution as a negative control, the antibacterial activity is expressed by the diameter of the inhibition zone. The inhibition zone >17 mm, sensitive; the inhibition zone of 15 mm-16 mm, intermediary; the inhibition zone <14 mm, drug resistance.

[2] = system: multi-resistant Staphylococcus aureus 206 (MRSA-206); test: paper diffusion method drug sensitivity test, MRSA-206; conditions: 30 μg/tablet; for Zone of inhibition, MRSA-206: paper 6.35 mm diameter, LB plate, 37° C., 24 h, >17 mm sensitive, 15 mm-16 mm intermediary, <14 mm drug resistance; for inhibitory effect (in words) on multi-drug resistant Staphylococcus aureus 206: paper diffusion, summary of FIGS. 1-3 and Table 1
Protocol: as §1, §2, §3, §4, §5, §6

[3] = system: multi-resistant Staphylococcus aureus 596 (MRSA-596); test: paper diffusion method drug sensitivity test, MRSA-596; conditions: 30 μg/tablet; for Zone of inhibition, MRSA-596: paper 6.35 mm diameter, LB plate, 37° C., 24 h, >17 mm sensitive, 15 mm-16 mm intermediary, <14 mm drug resistance; for inhibitory effect (in words) on multi-drug resistant Staphylococcus aureus 596: paper diffusion, summary of FIGS. 1-3 and Table 1
Protocol: as §1, §2, §3, §4, §5, §6

SMILES | Zone of inhibition, MRSA-575 [1] [mm] | inhibitory effect (in words) on multi-drug resistant Staphylococcus aureus 575 [1] | Zone of inhibition, MRSA-206 [2] [mm] | inhibitory effect (in words) on multi-drug resistant Staphylococcus aureus 206 [2] | Zone of inhibition, MRSA-596 [3] [mm] | inhibitory effect (in words) on multi-drug resistant Staphylococcus aureus 596 [3]
C=C[C@]1(C)C[C@@H](OC(=O)COC(=O)C2CN(C3CC3)c3cc(Cl)c(F)cc3C2=O)[C@]2(C)CC[C@@H](C)[C@@]3(CCC(=O)[C@@H]23)[C@@H](C)[C@@H]1O (stereo partly drawn) [2-(((3aS,4R,5S,6S,8R,9R,9aR,12R)-5-hydroxy-4,6,9,12-tetramethyl-1-oxo-6-vinyldecahydro-3a, 9-propanocyclopenta[8]annulen-8-yl)oxy)-2-oxoethyl-7-chloro-1-cyclopropyl-6-fluoro-4-oxo-1,2,3,4-tetrahydroquinoline-3-carboxylate] | 12 | strong inhibitory effects | 16 | strong inhibitory effects | 25 | strong inhibitory effects
O=C(O)c1cn(C2CC2)c2cc(Cl)c(F)cc2c1=O [7-Chloro-1-cyclopropyl-6-fluoro-1,4-dihydro-4-oxoquinoline-3-carboxylic acid] | 0 | no inhibitory effect | 0 | no inhibitory effect | 0 | no inhibitory effect
CN[C@H](CC(C)C)C(=O)N[C@H]1C(=O)N[C@@H](CC(N)=O)C(=O)N[C@H]2C(=O)N[C@H]3C(=O)N[C@H](C(=O)N[C@H](C(=O)O)c4cc(O)cc(O)c4-c4cc3ccc4O)[C@H](O)c3ccc(c(Cl)c3)Oc3cc2cc(c3O[C@@H]2O[C@H](CO)[C@@H](O)[C@H](O)[C@H]2O[C@H]2C[C@](C)(N)[C@H](O)[C@H](C)O2)Oc2ccc(cc2Cl)[C@H]1O [Vancomycin] | 17 |  | 15 |  | 23 | 
C=C[C@]1(C)C[C@@H](OC(=O)CO)[C@]2(C)[C@H](C)CC[C@]3(CCC(=O)[C@H]32)[C@@H](C)[C@@H]1O [Pleuromulin] | 0 | no inhibitory effect | 0 | no inhibitory effect | 0 | no inhibitory effect
